Experimental data taken from US20250206738A1, “WRN INHIBITORS” (Nimbus Wadjet, Inc., priority 2023, published 2025).
Where two headings read alike, the source gives them in different places.

How the values were obtained:
[1] = molecular target: T1, human Werner helicase (WRN, Uniprot Q14191, amino acids 517-1235 with L1074F point mutation; WRN-BV08) (Homo sapiens, UniProt Q14191, L1074F); assay: WRN (BV08) ADP-Glo assay; type: biochemical; conditions: WRN-BV08 (aa 517-1235, L1074F); read-out: ADP-Glo_hWRN_IC50
T1 construct: Uniprot Q14191, amino acids 517-1235 with L1074F point mutation; 8xHis (C, cleaved yes); TEV cleavage site (ENLYFQG) (C, cleaved yes); made in house; host or cells: Sf9 insect cells (baculovirus, pFastBac)
How it was run: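 WRN 517-1235 (L1074F, untagged, Sf9-expressed), 0.15 nM, preincubated with compound 15 min at 25 °C, then 60 min with […] and 0.1 nM DNA duplex in Bicine pH 7.5, 1 mM MgCl2, 1% DMSO. ADP-Glo luminescence; % inhibition vs NSC-617145 control, four-parameter IC50 fit.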

[2] = test system: p21 induction in HCT 116 cells; assay: p21 induction in cells (In-Cell Western, p21/GAPDH ratio); type: cell-based; conditions: 24 h compound incubation, read-out: P21_EC50
Procedure: Example 3: Method for Determining Effect on p21 Induction in Cells
The colon carcinoma cell line HCT 116 was obtained from ATCC and cultured in growth medium consisting of Mccoy's 5A Medium (Gibco 16600108) supplemented with 10% FBS (Transgene FS201-02) and 100 units/mL penicillin-streptomycin (Gibco 15140122) and maintained at 37° C. under 5% CO2. On the day of seeding, 2,000 cells in 30 μL of culture media were plated per well to Poly-D-Lysine 384 Well Black Clear Plates (Biocoat 356663) and incubated overnight at 37° C. under 5% CO2. The following day, compounds were serially diluted in DMSO for a total of 11 test concentrations. The typical starting concentration of compounds was 10 μM with 2-fold dilutions. Next, 150 nL of diluted compound was added in duplicate to the assay plate, using an Echo 655 (Labcyte). The plate was centrifuged at 500 RPM for 1 min and then incubated at 37° C. under 5% CO2 for 24 h. After 24h, medium was removed, and cells were fixed by adding 40 μL of 4% paraformaldehyde solution to each well and incubated for 20 min at room temperature. The plate was then washed 4 times with 100 μL per well of wash buffer (PBS with 0.1% Tween-20) using a microplate washer. Next, 30 μL of ice-cold methanol was added to each well and the plate was incubated at −20° C. for 10 min. The plate was washed 4 times with 100 μL per well of wash buffer by a microplate washer, then 30 μL per well of blocking buffer (Intercept PBS blocking buffer (LI-COR 927-70001) with 0.05% Tween-20) was added and the plate was incubated at room temperature with shaking for 2h. Next, to each test well, 20 μL of primary antibody solution (p21 Waf1/CIP (12D1) RabbitmAb (Cell Signaling Technologies 2947) diluted 1:1000 and GAPDH (D4C6R) Mouse mAb (Cell Signaling Technologies 97166) diluted 1:2000 in blocking buffer) was added and the plate was placed at 4° C., overnight. The following day, the plate was washed 5 times with 100 μL per well of wash buffer using a microplate washer for 5 min. 20 μL per well of secondary antibody (IRDye 680CW Goat anti-Mouse IgG (H+L) (LI-COR 926-68070) diluted 1: 2000 in Blocking Buffer and IRDye 800CW Goat anti-Rabbit IgG (H+L) (LI-COR 926-32211) diluted 1: 2000 in Blocking Buffer) was then added and the plate was stored for 2h in the dark at room temperature with shaking. The plate was then washed 4 times with 100 μL per well of wash buffer again using a microplate washer. Finally, the p21 signal and the GAPDH signal were quantified using a LI-COR Odyssey CLx Imager machine reading at 800 nm and 700 nm, respectively. Each plate contained DMSO control (low control) and an internal reference WRN inhibitor (high control) respectively. For quantitation, the 800 nm/700 nm ratio was calculated for each well to give fold p21 induction and then percent activation for each compound well was calculated as follows (100×(ratio cpd well−ratio low control)/(ratio high control−ratio low control)). EC50 values for each compound were generated after non-linear regression curve fitting using commercially available software.

T1 sequence (Q14191 with tags, fused parts or gaps L1074F): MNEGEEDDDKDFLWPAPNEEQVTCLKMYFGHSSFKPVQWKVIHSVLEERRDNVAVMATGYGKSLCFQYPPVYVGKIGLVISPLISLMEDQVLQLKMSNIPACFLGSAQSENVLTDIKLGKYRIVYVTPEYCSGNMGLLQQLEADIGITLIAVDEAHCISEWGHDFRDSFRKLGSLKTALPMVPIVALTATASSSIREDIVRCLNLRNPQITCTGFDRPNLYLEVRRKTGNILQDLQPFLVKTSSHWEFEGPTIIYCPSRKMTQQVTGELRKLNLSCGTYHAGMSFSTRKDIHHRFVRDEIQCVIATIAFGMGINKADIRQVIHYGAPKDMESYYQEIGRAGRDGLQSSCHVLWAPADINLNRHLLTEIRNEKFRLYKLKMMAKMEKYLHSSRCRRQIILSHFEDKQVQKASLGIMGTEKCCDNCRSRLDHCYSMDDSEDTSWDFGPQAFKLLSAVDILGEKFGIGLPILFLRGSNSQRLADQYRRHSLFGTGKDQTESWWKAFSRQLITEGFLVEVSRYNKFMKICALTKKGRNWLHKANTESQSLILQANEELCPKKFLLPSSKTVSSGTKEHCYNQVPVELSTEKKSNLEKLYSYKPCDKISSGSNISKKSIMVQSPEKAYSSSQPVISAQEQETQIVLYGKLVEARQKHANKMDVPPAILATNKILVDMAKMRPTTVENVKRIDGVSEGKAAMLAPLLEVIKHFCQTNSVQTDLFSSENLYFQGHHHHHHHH

Compound	IC50 [1] [nM]	EC50 ([2]; Homo sapiens, HCT-116, 24 h) [nM]	EC50 [2] [nM]
CCc1c(N2CCN(C(=O)c3cccc4ncoc34)CC2)c(=O)n2nc(-c3ccnc(OC)c3)nc2n1CC(=O)NC12CC(C(C)C)(C1)C2 [I-213, 2-(6-(4-(benzo[d]oxazole-7-carbonyl)piperazin-1-yl)-5-ethyl-2-(2-methoxypyridin-4-yl)-7-oxo-[1,2,4]triazolo[1,5-a]pyrimidin-4(7H)-yl)-N-(3-isopropylbicyclo[1.1.1]pentan-1-yl)acetamide]	5 to 50	500 to 2000	
CCc1c(N2CCN(C(=O)c3c(O)ccc4ncoc34)CC2)c(=O)n2nc(-c3ccnc(OC)c3)nc2n1CC(=O)NC12CC(C(C)C)(C1)C2 [I-35, 2-(5-ethyl-6-(4-(6-hydroxybenzo[d]oxazole-7-carbonyl)piperazin-1-yl)-2-(2-methoxypyridin-4-yl)-7-oxo-[1,2,4]triazolo[1,5-a]pyrimidin-4(7H)-yl)-N-(3-isopropylbicyclo[1.1.1]pentan-1-yl)acetamide]	≤ 5	≤ 500	
CCc1c(N2CCN(C(=O)c3c(OC)ccnc3O)[C@H]3CC[C@@H]32)c(=O)c2nn(C3=CCOCC3)nc2n1CC(=O)NC12CC(C(C)C)(C1)C2 [I-205, 2-(2-(3,6-dihydro-2H-pyran-4-yl)-5-ethyl-6-((1S,6S)-5-(2-hydroxy-4-methoxynicotinoyl)-2,5-diazabicyclo[4.2.0]octan-2-yl)-7-oxo-2,7-dihydro-4H-[1,2,3]triazolo[4,5-b]pyridin-4-yl)-N-(3-isopropylbicyclo[1.1.1]pentan-1-yl)acetamide]	5 to 50	> 5000	
CCc1c(N2CCN(C(=O)c3ncnc(C)c3O)CC2)c(=O)n2nc(C3=CCOCC3)nc2n1CC(=O)NC12COC(C(F)(F)F)(C1)C2 [I-26, 2-(2-(3,6-dihydro-2H-pyran-4-yl)-5-ethyl-6-(4-(5-hydroxy-6-methylpyrimidine-4-carbonyl)piperazin-1-yl)-7-oxo-[1,2,4]triazolo[1,5-a]pyrimidin-4(7H)-yl)-N-(1-(trifluoromethyl)-2-oxabicyclo[2.1.1]hexan-4-yl)acetamide]	100 to 500	> 5000	
CCc1c(N2CCN(C(=O)c3cnn(C)c3)CC2)c(=O)n2nc(C3=CCOCC3)nc2n1CC(=O)NC1Cc2ccc(F)cc2C1 (stereo not drawn) [I-248, 2-(2-(3,6-dihydro-2H-pyran-4-yl)-5-ethyl-6-(4-(1-methyl-1H-pyrazole-4-carbonyl)piperazin-1-yl)-7-oxo-[1,2,4]triazolo[1,5-a]pyrimidin-4(7H)-yl)-N-(5-fluoro-2,3-dihydro-1H-inden-2-yl)acetamide]	100 to 500	> 5000	
CCc1c(N2CCN(C(=O)c3c(O)ccnc3OC)CC2)c(=O)n2nc(C3=CCOCC3)nc2n1CC(=O)NC12CC(C(F)(F)F)(C1)C2 [I-239, 2-(2-(3,6-dihydro-2H-pyran-4-yl)-5-ethyl-6-(4-(4-hydroxy-2-methoxynicotinoyl)piperazin-1-yl)-7-oxo-[1,2,4]triazolo[1,5-a]pyrimidin-4(7H)-yl)-N-(3-(trifluoromethyl)bicyclo[1.1.1]pentan-1-yl)acetamide]	50 to 100	> 5000	
CCc1c(N2CCN(C(=O)c3ncccc3C(=O)O)[C@H]3CC[C@@H]32)c(=O)c2nn(-c3ccnc(OC)c3)nc2n1CC(=O)NC12CC(C(C)C)(C1)C2 [I-202, 2-((1S,6S)-5-(5-ethyl-4-(2-((3-isopropylbicyclo[1.1.1]pentan-1-yl)amino)-2-oxoethyl)-2-(2-methoxypyridin-4-yl)-7-oxo-4,7-dihydro-2H-[1,2,3]triazolo[4,5-b]pyridin-6-yl)-2,5-diazabicyclo[4.2.0]octane-2-carbonyl)nicotinic acid]	5 to 50	> 5000	

The next lines start with the values.

IC50 [1] [nM]	EC50 ([2]; Homo sapiens, HCT-116, 24 h) [nM]	EC50 [2] [nM]	Compound
5 to 50	≤ 500		CCc1c(N2CCN(C(=O)c3ncnc(C)c3O)[C@H]3CC[C@@H]32)c(=O)c2nn(C3=CCOC(C)C3)nc2n1CC(=O)NC12CC(C3CC3)(C1)C2 (single isomer, unassigned) [I-169]
5 to 50	> 5000		CCc1c(N2CCN(C(=O)c3ccccc3C(=O)O)[C@H]3CC[C@@H]32)c(=O)c2nn(-c3ccnc(OC)c3)nc2n1CC(=O)NC12CC(C(C)C)(C1)C2 [I-207, 2-((1S,6S)-5-(5-ethyl-4-(2-((3-isopropylbicyclo[1.1.1]pentan-1-yl)amino)-2-oxoethyl)-2-(2-methoxypyridin-4-yl)-7-oxo-4,7-dihydro-2H-[1,2,3]triazolo[4,5-b]pyridin-6-yl)-2,5-diazabicyclo[4.2.0]octane-2-carbonyl)benzoic acid]
100 to 500	> 5000		CCc1c(N2CCN(C(=O)c3cnn(C)c3)CC2)c(=O)n2nc(-c3ccnc(OC)c3)nc2n1CC(=O)NC1CC2(C1)CC2F (stereo not drawn) [I-247, 2-(5-ethyl-2-(2-methoxypyridin-4-yl)-6-(4-(1-methyl-1H-pyrazole-4-carbonyl)piperazin-1-yl)-7-oxo-[1,2,4]triazolo[1,5-a]pyrimidin-4(7H)-yl)-N-(1-fluorospiro[2.3]hexan-5-yl)acetamide]
5 to 50	500 to 2000		CCc1c([C@@]23CCN(C(=O)c4ncnc(C)c4O)C[C@@H]2C3)c(=O)c2nn(-c3ccnc(OC)c3)nc2n1CC(=O)NC12CC(C(C)C)(C1)C2 (relative stereo) [I-63, rel-2-{5-ethyl-6-[(1R,6S)-3-(5-hydroxy-6-methylpyrimidine-4-carbonyl)-3-azabicyclo[4.1.0]heptan-6-yl]-2-(2-methoxypyridin-4-yl)-7-oxo-2H,4H,7H-[1,2,3]triazolo[4,5-b]pyridin-4-yl}-N-[3-(propan-2-yl)bicyclo[1.1.1]pentan-1-yl]acetamide]
5 to 50		≤ 500	CCc1c(N2CCN(C(=O)c3ncnc(C)c3O)[C@H]3CC[C@@H]32)c(=O)c2nn(C3=CCOC(C)C3)nc2n1CC(=O)NC12CC(C3CC3)(C1)C2 (single isomer, unassigned) [I-170]
5 to 50	500 to 2000		CCc1c(N2CCN(C(=O)c3ncc4c(c3O)CCO4)CC2)c(=O)n2nc(C3=CCOCC3)nc2n1CC(=O)NC12CC(C(C)C)(C1)C2 [I-15, 2-(2-(3,6-dihydro-2H-pyran-4-yl)-5-ethyl-6-(4-(4-hydroxy-2,3-dihydrofuro[2,3-c]pyridine-5-carbonyl)piperazin-1-yl)-7-oxo-[1,2,4]triazolo[1,5-a]pyrimidin-4(7H)-yl)-N-(3-isopropylbicyclo[1.1.1]pentan-1-yl)acetamide]
5 to 50	≤ 500		CCc1c(N2CCN(C(=O)c3c(O)ccc4ncoc34)CC2)c(=O)n2nc(-c3ccnc(OC)c3)nc2n1CC(=O)NC12CC(C(F)(F)C(F)(F)F)(C1)C2 [I-38, 2-(5-ethyl-6-(4-(6-hydroxybenzo[d]oxazole-7-carbonyl)piperazin-1-yl)-2-(2-methoxypyridin-4-yl)-7-oxo-[1,2,4]triazolo[1,5-a]pyrimidin-4(7H)-yl)-N-(3-(perfluoroethyl)bicyclo[1.1.1]pentan-1-yl)acetamide]
5 to 50	500 to 2000		CCc1c(N2CCN(C(=O)c3c(O)ccc4ncoc34)CC2)c(=O)c2sc(-c3ccnc(OC)c3)nc2n1CC(=O)NC12CC(C(F)(F)F)(C1)C2 [I-37, 2-(5-ethyl-6-(4-(6-hydroxybenzo[d]oxazole-7-carbonyl)piperazin-1-yl)-2-(2-methoxypyridin-4-yl)-7-oxothiazolo[4,5-b]pyridin-4(7H)-yl)-N-(3-(trifluoromethyl)bicyclo[1.1.1]pentan-1-yl)acetamide]
